# Measured values taken from patent US20090018111A1, “Novel Antimicrobial Medicament” (priority 2004, published 2009).
# Read-outs that look alike come from different tables or passages of the source.
# How the values were obtained:
# [1] = system: E. aerogenes ATCC13048; assay: Sensitivity test (agar dilution); type: cell-based, Enterobacter aerogenes; settings: Klebsiella aerogenes, read-out: MIC
# Outline: (§1)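 Minimum inhibitory concentrations come from agar dilution in MHA, with single agents or combinations in twofold steps. Inocula: about 5 μl at about 10^6 CFU/ml. An FIC index of at most 1 marks a positive combination effect; above 1, negative.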
# [2] = system: B. subtilis ATCC6633; assay: Sensitivity test (agar dilution); type: cell-based, Bacillus subtilis; settings: Bacillus subtilis, read-out: MIC
# Outline: as §1
# [3] = system: S. maltophilia IID1275; assay: Sensitivity test (agar dilution); type: cell-based, Stenotrophomonas maltophilia; settings: Stenotrophomonas maltophilia, read-out: MIC
# Outline: as §1
# [4] = system: P. mirabiris GN2425; assay: Sensitivity test (agar dilution); type: cell-based, Proteus mirabilis; settings: Proteus mirabilis, read-out: MIC
# Outline: as §1
# [5] = system: Str. pyogenes Cook; assay: Sensitivity test (agar dilution); type: cell-based, Streptococcus pyogenes; settings: Streptococcus pyogenes, read-out: MIC
# Outline: as §1
# [6] = system: M. catarrhalis ATCC25238; assay: Sensitivity test (agar dilution); type: cell-based, Moraxella catarrhalis; settings: Moraxella catarrhalis, read-out: MIC
# Outline: as §1
# [7] = system: M. catarrhalis ATCC8176; assay: Sensitivity test (agar dilution); type: cell-based, Moraxella catarrhalis; settings: Moraxella catarrhalis, read-out: MIC
# Outline: as §1
# [8] = system: E. coli ML1410 RP4; assay: microbe, parasite or virus in culture; type: cell-based, Escherichia coli; settings: Escherichia coli
# Outline: as §1
# [9] = system: K. pneumoniae ATCC10031; assay: Sensitivity test (agar dilution); type: cell-based, Klebsiella pneumoniae; settings: Klebsiella pneumoniae, read-out: MIC
# Outline: as §1
# [10] = system: E. faecium ATCC19434; assay: Sensitivity test (agar dilution); type: cell-based, Enterococcus faecium
# Outline: as §1
# [11] = system: P. aeruginosa TL-2667; assay: Sensitivity test (agar dilution); type: cell-based, Pseudomonas aeruginosa; settings: Pseudomonas aeruginosa, read-out: MIC
# Outline: as §1
# [12] = system: P. aeruginosa TL-2666; assay: Sensitivity test (agar dilution); type: cell-based, Pseudomonas aeruginosa; settings: Pseudomonas aeruginosa, read-out: MIC
# Outline: as §1
# [13] = system: P. aeruginosa IFO3451; assay: Sensitivity test (agar dilution); type: cell-based, Pseudomonas aeruginosa; settings: Pseudomonas aeruginosa, read-out: MIC
# Outline: as §1
smiles,measurement,setting,value
"C[C@@H](O)[C@H]1C(=O)N2C(C(=O)O)=C(S[C@@H]3CN[C@H](C(=O)N(C)C)C3)[C@H](C)[C@H]12 [MEPM, meropenem]",MIC,"[1]; ATCC13048, Concomitant (MEPM:SM = 1:1)",≤ 0.016 µg/mL
same,MIC,"[1]; ATCC13048, Concomitant (MEPM:SM = 1:2)",0.031 µg/mL
same,MIC,"[1]; ATCC13048, Concomitant (MEPM:SM = 1:4)",0.031 µg/mL
same,MIC,"[1]; ATCC13048, Concomitant drug (MEPM:SM = 2:1)",0.031 µg/mL
same,MIC,"[1]; ATCC13048, alone",0.063 µg/mL
same,MIC,"[2]; ATCC6633, Concomitant (MEPM:SM = 1:1)",≤ 0.016 µg/mL
same,MIC,"[2]; ATCC6633, Concomitant (MEPM:SM = 1:2)",≤ 0.016 µg/mL
same,MIC,"[2]; ATCC6633, Concomitant (MEPM:SM = 1:4)",≤ 0.016 µg/mL
same,MIC,"[2]; ATCC6633, Concomitant drug (MEPM:SM = 2:1)",≤ 0.016 µg/mL
same,MIC,"[2]; ATCC6633, alone",0.063 µg/mL
same,MIC,"[3]; IID1275, Concomitant (MEPM:SM = 1:1)",> 32 µg/mL
same,MIC,"[3]; IID1275, Concomitant (MEPM:SM = 1:2)",> 32 µg/mL
same,MIC,"[3]; IID1275, Concomitant (MEPM:SM = 1:4)",> 32 µg/mL
same,MIC,"[3]; IID1275, Concomitant drug (MEPM:SM = 2:1)",> 32 µg/mL
same,MIC,"[3]; IID1275, alone",> 32 µg/mL
same,MIC,"[4]; GN2425, Concomitant (MEPM:SM = 1:1)",≤ 0.016 µg/mL
same,MIC,"[4]; GN2425, Concomitant (MEPM:SM = 1:2)",0.031 µg/mL
same,MIC,"[4]; GN2425, Concomitant (MEPM:SM = 1:4)",≤ 0.016 µg/mL
same,MIC,"[4]; GN2425, Concomitant drug (MEPM:SM = 2:1)",0.031 µg/mL
same,MIC,"[4]; GN2425, alone",0.063 µg/mL
same,MIC,[5]; Concomitant (MEPM:SM = 1:1),≤ 0.016 µg/mL
same,MIC,[5]; Concomitant (MEPM:SM = 1:2),≤ 0.016 µg/mL
same,MIC,[5]; Concomitant (MEPM:SM = 1:4),≤ 0.016 µg/mL
same,MIC,[5]; Concomitant drug (MEPM:SM = 2:1),≤ 0.016 µg/mL
same,MIC,[5]; alone,≤ 0.016 µg/mL
same,MIC,"[6]; ATCC25238, Concomitant (MEPM:SM = 1:1)",≤ 0.016 µg/mL
same,MIC,"[6]; ATCC25238, Concomitant (MEPM:SM = 1:2)",≤ 0.016 µg/mL
same,MIC,"[6]; ATCC25238, Concomitant (MEPM:SM = 1:4)",≤ 0.016 µg/mL
same,MIC,"[6]; ATCC25238, Concomitant drug (MEPM:SM = 2:1)",≤ 0.016 µg/mL
same,MIC,"[6]; ATCC25238, alone",≤ 0.016 µg/mL
same,MIC,"[7]; ATCC8176, Concomitant (MEPM:SM = 1:1)",≤ 0.016 µg/mL
same,MIC,"[7]; ATCC8176, Concomitant (MEPM:SM = 1:2)",≤ 0.016 µg/mL
same,MIC,"[7]; ATCC8176, Concomitant (MEPM:SM = 1:4)",≤ 0.016 µg/mL
same,MIC,"[7]; ATCC8176, Concomitant drug (MEPM:SM = 2:1)",≤ 0.016 µg/mL
same,MIC,"[7]; ATCC8176, alone",≤ 0.016 µg/mL
same,MIC,"[8]; ML1410RP4, Concomitant (MEPM:SM = 1:1)",≤ 0.016 µg/mL
same,MIC,"[8]; ML1410RP4, Concomitant (MEPM:SM = 1:2)",≤ 0.016 µg/mL
same,MIC,"[8]; ML1410RP4, Concomitant (MEPM:SM = 1:4)",≤ 0.016 µg/mL
same,MIC,"[8]; ML1410RP4, Concomitant drug (MEPM:SM = 2:1)",≤ 0.016 µg/mL
same,MIC,"[8]; ML1410RP4, alone",0.031 µg/mL
same,MIC,"[9]; ATCC10031, Concomitant (MEPM:SM = 1:1)",≤ 0.016 µg/mL
same,MIC,"[9]; ATCC10031, Concomitant (MEPM:SM = 1:2)",≤ 0.016 µg/mL
same,MIC,"[9]; ATCC10031, Concomitant (MEPM:SM = 1:4)",≤ 0.016 µg/mL
same,MIC,"[9]; ATCC10031, Concomitant drug (MEPM:SM = 2:1)",≤ 0.016 µg/mL
same,MIC,"[9]; ATCC10031, alone",≤ 0.016 µg/mL
same,MIC,[10]; Concomitant (MEPM:SM = 1:2),0.125 µg/mL
same,MIC,"[10]; Enterococcus faecium, ATCC19434",0.125 µg/mL
same,MIC,"[10]; Enterococcus faecium, ATCC19434, Concomitant (MEPM:SM = 1:4), read-out: MIC",0.031 µg/mL
same,MIC,"[10]; Enterococcus faecium, ATCC19434, Concomitant drug (MEPM:SM = 2:1), read-out: MIC",0.5 µg/mL
same,MIC,"[10]; Enterococcus faecium, ATCC19434, alone, read-out: MIC",8 µg/mL
same,MIC,"[11]; TL2667, Concomitant (MEPM:SM = 1:1)",4 µg/mL
same,MIC,"[11]; TL2667, Concomitant (MEPM:SM = 1:2)",2 µg/mL
same,MIC,"[11]; TL2667, Concomitant (MEPM:SM = 1:4)",2 µg/mL
same,MIC,"[11]; TL2667, Concomitant drug (MEPM:SM = 2:1)",4 µg/mL
same,MIC,"[11]; TL2667, alone",4 µg/mL
same,MIC,"[12]; TL2666, Concomitant (MEPM:SM = 1:1)",1 µg/mL
same,MIC,"[12]; TL2666, Concomitant (MEPM:SM = 1:2)",1 µg/mL
same,MIC,"[12]; TL2666, Concomitant (MEPM:SM = 1:4)",1 µg/mL
same,MIC,"[12]; TL2666, Concomitant drug (MEPM:SM = 2:1)",1 µg/mL
same,MIC,"[12]; TL2666, alone",1 µg/mL
same,MIC,"[13]; IFO3451, Concomitant (MEPM:SM = 1:1)",0.5 µg/mL
same,MIC,"[13]; IFO3451, Concomitant (MEPM:SM = 1:2)",0.5 µg/mL
same,MIC,"[13]; IFO3451, Concomitant (MEPM:SM = 1:4)",0.5 µg/mL
same,MIC,"[13]; IFO3451, Concomitant drug (MEPM:SM = 2:1)",0.5 µg/mL
same,MIC,"[13]; IFO3451, alone",0.5 µg/mL
